Reference: patent publication US6376497B1, “Antifungal azole derivatives having a fluorinated vinyl group and process for preparing same” (Korea Research Institute of Chemical Technology, priority 1999, dated 2002)

Experiments:
Assay in all cases: In vitro antifungal activity, microbroth dilution MIC
Type in all cases: cell-based
[1] = test system: Torulopsis glabrata B. 16205; details: T. glabrata B. 16205, RPMI-1640, 35° C., 4 to 48 hours
Procedure: (§1) In vitro antifungal activities of the inventive antifungal compounds were evaluated using the test strains shown in Table VIII by the following microbroth dilution method which is a modified version of the procedure recommended by National Committee for Clinical Laboratory Standards(see National Committee for Clinical Laboratory Standards, 1992, Reference methods for broth dilution antifungal susceptibility testing of yeasts, Proposed standard M27-P, National Committee for clinical laboratory standards, Villanova, Pa; and National Committee for Clinical Laboratory Standards, 1995, Reference methods for broth dilution antifungal susceptibility testing of yeasts. Tentative standard M27-T, National Committee for clinical laboratory standards, Villanova, Pa).
(§2) Sabourad Dextrose Agar(Difco) was used as a culture medium, and RPMI-1640 broth(Sigma. Co. w/L-glutamine, wo/NaHCO3)(0.165 M MOPS, pH 7.0), as a dilution medium.
(§3) Each of the test strains were subcultured in Sabourad Dextrose Agar medium twice and a stain sample was taken from prominent colonies and suspended in sterile physiological saline solution in a cap tube. The turbidity of the suspension was adjusted to that of the Mcfarland 0.5 standard sample(approximately 10^6 CFU/ml). Then the suspension was diluted 500-fold with sterile RPMI-1640 liquid medium to 2×10^3 CFU/ml.
(§4) Each of the test compounds(the compounds obtained in Examples 1 to 150 and comparative compounds, i.e., fluconazole(FCZ) and itraconazole (ICZ)), was dissolved in DMSO to give a stock solution having a concentration of 4000 μg/ml and the stock solution was successively diluted to obtain test solutions having test compound concentrations of 200, 100, 50, 25, 12.5, 6.25, 3.13, 1.56, 0.78, 0.39, 0.20 and 0.10 μg/ml, respectively.
(§5) 0.1 ml portion of the test solutions were added to the wells of a sterile 96 well plate. Then, 0.1 ml portion of each of the test strain solutions were added successively to the wells and the plate was incubated at 35° C. for 4 to 48 hours.
(§6) Minimal inhibitory concentration(MIC) of each compound was defined as the concentration of the test compound where no growth of the strain could be observed.

[2] = test system: Candida albicans IFO. 1385; details: C. albicans IFO. 1385, RPMI-1640, 35° C., 4 to 48 hours
Procedure: as §1, §2, §3, §4, §5, §6

[3] = test system: Cryptococcus neoformans A. 34144; details: Cry. neoformans A. 34144, RPMI-1640, 35° C., 4 to 48 hours
Procedure: as §1, §2, §3, §4, §5, §6

[4] = test system: Cryptococcus neoformans IFM. 40092; details: Cry. neoformans IFM. 40092, RPMI-1640, 35° C., 4 to 48 hours
Procedure: as §1, §2, §3, §4, §5, §6

[5] = test system: Candida pseudotropicalis K. 11658; details: C. pseudotropicalis K. 11658, RPMI-1640, 35° C., 4 to 48 hours
Procedure: as §1, §2, §3, §4, §5, §6

[6] = test system: Candida tropicalis A. 13803; details: C. tropicalis A. 13803, RPMI-1640, 35° C., 4 to 48 hours
Procedure: as §1, §2, §3, §4, §5, §6

Candida albicans C1-2 = details: C. albicans C1-2, RPMI-1640, 35° C., 4 to 48 hours
Procedure: as §1, §2, §3, §4, §5, §6

[7] = test system: Trichophyton mentagrophytes B. 32663; details: T. mentagrophytes B. 32663, RPMI-1640, 35° C., 4 to 48 hours
Procedure: as §1, §2, §3, §4, §5, §6

[8] = test system: Aspergillus niger A. 16404; details: A. niger A. 16404, RPMI-1640, 35° C., 4 to 48 hours
Procedure: as §1, §2, §3, §4, §5, §6

Candida krusei K. 11655 = details: C. krusei K. 11655, RPMI-1640, 35° C., 4 to 48 hours
Procedure: as §1, §2, §3, §4, §5, §6

[9] = test system: Aspergillus furnigatus B. 19119; details: A furnigatus B. 19119, RPMI-1640, 35° C., 4 to 48 hours
Procedure: as §1, §2, §3, §4, §5, §6

[10] = test system: Cryptococcus neoformans B. 42419; details: Cry. neoformans B. 42419, RPMI-1640, 35° C., 4 to 48 hours
Procedure: as §1, §2, §3, §4, §5, §6

[11] = test system: Candida albicans A. 10231; details: C. albicans A. 10231, RPMI-1640, 35° C., 4 to 48 hours
Procedure: as §1, §2, §3, §4, §5, §6

[12] = test system: Trichophyton mentagrophytes A. 9129; details: T. mentagrophytes A. 9129, RPMI-1640, 35° C., 4 to 48 hours
Procedure: as §1, §2, §3, §4, §5, §6

[13] = test system: Candida parapsitosis A. 7330; details: C. parapsitosis A. 7330, RPMI-1640, 35° C., 4 to 48 hours
Procedure: as §1, §2, §3, §4, §5, §6

Structure (SMILES) | Minimal inhibitory concentration (MIC) [1] [µg/mL] | Minimal inhibitory concentration (MIC) [2] [µg/mL] | Minimal inhibitory concentration (MIC) [3] [µg/mL] | Minimal inhibitory concentration (MIC) [4] [µg/mL] | Minimal inhibitory concentration (MIC) [5] [µg/mL] | Minimal inhibitory concentration (MIC) [6] [µg/mL] | Minimal inhibitory concentration (MIC) (Candida albicans C1-2) [µg/mL] | Minimal inhibitory concentration (MIC) [7] [µg/mL] | Minimal inhibitory concentration (MIC) [8] [µg/mL] | Minimal inhibitory concentration (MIC) (Candida krusei K. 11655) [µg/mL] | Minimal inhibitory concentration (MIC) [9] [µg/mL] | Minimal inhibitory concentration (MIC) [10] [µg/mL] | Minimal inhibitory concentration (MIC) [11] [µg/mL] | Minimal inhibitory concentration (MIC) [12] [µg/mL] | Minimal inhibitory concentration (MIC) [13] [µg/mL]
FC(OCC1COC(Cn2ccnc2)(c2ccc(Cl)cc2Cl)O1)=C(c1cccc(F)c1)C(F)(F)F (mixture of isomers) [Ex. 32] | 12.5 | 0.78 | 0.78 | 0.39 | 100 | 25.0 | 6.25 | 6.25 | 100 | >100 | 50.0 | 1.56 | 6.25 | 12.5 | >100
FC(OCC1COC(Cn2ccnc2)(c2ccc(Cl)cc2Cl)O1)=C(c1ccc(F)cc1)C(F)(F)F (mixture of isomers) [Ex. 33] | 25.0 | 1.56 | 1.56 | 0.78 | 100 | 50.0 | 12.5 | 12.5 | 100 | 100 | 100 | 1.56 | 6.25 | 25.0 | >100
FC(OCC1COC(Cn2ccnc2)(c2ccc(Cl)cc2Cl)O1)=C(c1cc(Cl)cc(Cl)c1)C(F)(F)F (mixture of isomers) [Ex. 34] | 6.25 | 0.39 | 1.56 | 0.39 | 12.5 | 12.5 | 6.25 | 0.78 | 6.25 | 25.0 | 3.13 | 1.56 | 6.25 | 1.56 | 12.5
FC(OCC1COC(Cn2ccnc2)(c2ccc(Cl)cc2Cl)O1)=C(c1cccs1)C(F)(F)F (mixture of isomers) [Ex. 35] | 25.0 | 1.56 | 1.56 | 0.78 | >100 | 100 | 25.0 | 6.25 | 100 | >100 | 100 | 1.56 | 25.0 | 25.0 | >100
FC(=Cc1ccccc1)OCC1COC(Cn2ccnc2)(c2ccc(F)cc2F)O1 (mixture of isomers) [Ex. 36] | 25.0 | 0.78 | 6.25 | 0.78 | 25.0 | 100 | 50.0 | 0.39 | 12.5 | 50.0 | 1.56 | 3.13 | 50.0 | 1.56 | 25.0
Cc1cccc(C=C(F)OCC2COC(Cn3ccnc3)(c3ccc(F)cc3F)O2)c1 (mixture of isomers) [Ex. 37] | 6.25 | 3.13 | 3.13 | 0.78 | >100 | >100 | 25.0 | 25.0 | >100 | >100 | >100 | 6.25 | 25.0 | 50.0 | >100
